Data taken from patent publication US10233157B2, “SIK inhibitor for use in a method of treating an inflammatory and/or immune disorder” (Dana-Farber Cancer Institute, Inc., priority 2012, dated 2019).

Experiments:
[1] = tested on: protein kinases that possess a threonine residue at the gatekeeper site (Src, Lck, Yes, BTK, FGF and Ephrin receptors); test: Kinase profiling, kinases with threonine at the gatekeeper site; type: biochemical; details: kinase panel; 1 μM KIN112, 0.1 μM HG-9-91-01
Experimental: Recombinant SIK1, SIK2, SIK3 were expressed as GST-fusion proteins in HEK293 cells and purified on a glutathione-Sepharose column. […] FLAG-CRTC3 was immunoprecipitated using anti-FLAG M2 agarose, washed in kinase buffer (50 mM Tris/HCl pH 7.4, 10 mM Mg acetate, 0.1 mM EGTA, 2 mM DTT) and reactions initiated by adding 4 U/ml recombinant kinase with 0.1 mM ATP (specific activity 3000 cpm/pmol). Phosphorylation of CRTC3 was monitored by autoradiography as well as immunoblotting using phosphospecific antibodies raised against Ser162, Ser329 and Ser370. […] Kinase profiling was performed as previously described (7) and performed by the International Centre for Kinase Profiling (www.kinase-screen.mrc.ac.uk).

[2] = tested on: CRTC3; test: CRTC3 nuclear translocation (immunofluorescence, live imaging); type: cell-based; details: WT CRTC3
From the text: FIGS. 15A to 15C. SIK inhibitors induce the dephosphorylation of CRTC3 at Ser62, Ser162, Ser329 and Ser370 and its translocation to the nucleus. (FIG. 15A) HEK293 cells were transfected with FLAG-CRTC2, FLAG-CRTC3 or FLG-CRTC3[S162A]. Aliquots of the cell extracts were subjected to SDS-PAGE and immunoblotting using an antibody that recognizes CRTC2 phosphorylated at Ser171. […] (FIG. 15B) HEK293 cells were transfected with FLAG-CRTC3, FLAG-CRTC3[S62A/S162A/S329A/S370A] (termed CRTC3-4A) or with empty vector (FLAG-ev). […]. (FIG. 15C) Inhibition of SIKs promotes the translocation of endogenous CRTC3 to the nucleus. […].
RAW264.7 cells were grown on glass coverslips and treated with inhibitors for 1 h. Cells were then fixed for 10 min in 3.7% paraformaldehyde, permeabilized for 5 min using 0.1% Triton X-100 in PBS and blocked for 45 min using 3% BSA in PBS. Cells were stained with anti-CRTC3 (Abcam 1:200) and anti-α-tubulin (Santa Cruz 1:500) followed by anti-rabbit-alexa488 and anti-mouse-alexa594 (Invitrogen 1:500), respectively. Antibodies were diluted in blocking buffer and incubated with the cells for 45 min. […] Images were recorded every 30 s for 1.5 min prior to the addition of drug after which cells were imaged for a further 60 min.

[3] = tested on: STAT3; test: Immunoblotting of STAT3 phosphorylation in LPS-stimulated macrophages; type: cell-based, mouse
Experimental: FIGS. 2A to 2G. […] As in A except that cells were stimulated for 2 h with LPS.
Bone-marrow derived macrophages were differentiated for 7 days in DMEM supplemented with 5 ng/ml recombinant M-CSF (R&D systems), 2 mM glutamine, 10% foetal calf serum, penicillin and streptomycin.
Cells were rinsed in ice-cold PBS and extracted in lysis buffer (50 mM Tris/HCl pH 7.4, 1 mM EDTA, 1 mM EGTA, 50 mM NaF, 5 mM sodium pyrophosphate, 10 mM sodium α-glycerol 1-phosphate, 1 mM dithiothreitol, 1 mM sodium orthovanadate, 0.27 M sucrose, 1% (v/v) Triton X-100, 1 μg/ml aprotinin, 1 μg/ml leupeptin and 1 mM phenylmethylsulphonyl fluoride). Cell extracts were clarified by centrifugation at 14000×g for 10 min at 4° C. and protein concentrations determined using the Bradford assay. To detect proteins in cell lysates, 20 μg of protein extract was separated by SDS-PAGE. After transfer to PVDF membranes, proteins were detected by immunoblotting and visualized by treating the blots with ECL (Amersham) followed by autoradiography. The antibody recognizing CREB phosphorylated at Ser133 was from Cell Signalling Technology and the one detecting α-tubulin was obtained from Sigma.

Structure (SMILES)	inhibition of protein kinases with a threonine residue at the gatekeeper site [1]	CRTC3 nuclear translocation [2]	LPS-stimulated phosphorylation of STAT3 ([3]; 2 μM MRT67307)	phosphorylation of STAT3 ([3]; LPS-stimulated macrophages from IL-10−/− mice, presence or absence of compound)
COc1ccc(N(C(=O)Nc2c(C)cccc2C)c2cc(Nc3ccc(N4CCN(C)CC4)cc3)ncn2)c(OC)c1 [HG-9-91-01, 1-(2,4-dimethoxyphenyl)-3-(2,6-dimethylphenyl)-1-(6-((4-(4-methylpiperazin-1-yl)phenyl)amino)pyrimidin-4-yl)urea]	inhibited	translocates to the nucleus		
O=C(NCCCNc1nc(Nc2cccc(CN3CCOCC3)c2)ncc1C1CC1)C1CCC1 [MRT67307]			increased	no phosphorylation of STAT3 occurred
